How the values were obtained:
[1] = tested on: CD71+ cells in a erythroid cell population; experiment: Percentage of CD71+ cells in an erythroid cell population in vitro; assay type: cell-based; settings: between 5-20 μM in vitro
Excerpt: Accordingly, in some embodiments, an autophagy activator as disclosed herein can be administered to a subject according to the methods as disclosed herein in an effective dose to increase the levels of CD71+ cells in an erythroid cell population obtained from the subject by at least about 1%, at least about 2%, at least about 3%, at least about 5%, at least about 10%, at least about 15%, least about 20%, at least about 30%, at least about 40%, at least about 50%, or more than 50%, as compared to in the absence of an autophagy activator.

CB CD34+ cells = assay type: in vivo, NSG mice; settings: 1 mg/kg Dex (sodium-phosphate) for 4 weeks; p=0.04
Experimental: (FIG. 10A) SMER28 rescues RBC output in rps29^+/− zebrafish embryos. The level of hemoglobin in the yolk sac was visualized 40hpf with benzidine staining. Images are representative of the proportion of embryos indicated (of total counted). (FIG. 10B) Quantitation of SMER28 rescue for a range of 0.1-1 μM, with embryos grouped by high, medium, and low levels of hemoglobin staining. (FIG. 10C) Peripheral blood (PB) RBC counts and hematocrit in mice with irradiation-induced anemia. Mice were treated with the PEG400-based vehicle containing DMSO (VEH) (n=11), 1 mg/kg Dex (sodium-phosphate) (n=13), or 10 mg/kg SMER28 (n=9) for 3 weeks, bled, and assessed. Data are combined from 3 independent experiments. (FIG. 10D) Erythroid cells as proportion of the human graft in mice transplanted with DBA CD34-5F progenitors, and treated as in (FIG. 1c). (FIG. 10E) Levels of human engraftment in NSG mouse bone marrow (BM) transplanted with CB CD34^+ cells. Mice were treated with DMSO plus vehicle (VEH) (n=10), 1 mg/kg Dex (sodium-phosphate) (n=6), or 2 mg/kg SMER28 (n=11) for 4 weeks. (FIG. 10F) The proportion of erythroid, myeloid, and lymphoid (B cells) lineages within the human graft in vehicle- and SMER28-treated mice transplanted with CB CD34^+ cells. Only the effect on the erythroid lineage was significant. Data in FIGS. 10E-10G are pooled from 2 independent experiments. For all panels, *p<0.05, * *p<0.01.
Drug treatments. SMER28 was purchased from Tocris and diluted in 10 mM aliquots in DMSO. The final concentration for CD34-5F and CB CD34^+erythroid treatments was 0.2-10 μM as indicated in the text. The final concentration for K562 cell treatments was 20-40 μM. Ferric citrate (1-50 μM) and deferoxamine (100-200 μM) (Sigma) were dissolved in PBS and added on days 0-4 of “expansion” culture, and washed off prior to erythroid stage I (days 4-9) differentiation. For in vivo experiments, SMER28 aliquots were diluted in vehicle solution: 30% PEG-400, 5% propylene glycol, and 0.5% Tween-80. Dosing for human xenograft experiments was 2 mg/kg; for mouse models 10-20 mg/kg. Dexamethasone was purchased as Dex-sodium phosphate (DexSP) water-soluble formulation (Santa Cruz), and diluted in PBS vehicle (1 mg/kg). NSG mice were sub-lethally irradiated at 275 rads, and administered 100 μl of drug or vehicle by oral gavage daily.

[2] = tested on: K562 erythroleukemia cells transduced with shRPS19; experiment: Autophagy induction (p62, LC3-I, LC3-II protein levels) in K562 cells transduced with shRPS19; assay type: cell-based, human; settings: 5-FU 100 nM
Experimental: (FIG. 13A) Induction of autophagy by SMER28 (40 μM) monitored by protein levels of p62, LC3-I, and LC3-II after 24 hours. Cells were also treated with 5-FU (100 nM) to induce autophagy, or inhibitor of transcription actinomycin D (ActD; 100 nM). (FIG. 13B) Induction of autophagy by SMER28 (40 μM) monitored by protein levels of p62, LC3-I, and LC3-II after 24 hours treatment with or without lysosomal blockade with bafilomycin A (200 nM for 4 hours). Untreated samples are shown at higher exposure, to capture dynamic changes in the LC3-II levels. Rapamycin (200 nM) is a positive control. LC3-II levels relative to GAPDH are quantitated on the right. (FIG. 13C) Erythroid differentiation of CD34-5F cells transduced with shRNAs for luciferase (LUC) or ATG5±SMER28. Representative flow plots and quantitation showing the number of erythroid cells induced by SMER28 (10 μM) normalized to DMSO. 2 control luciferase shRNAs and 2 ATG5 shRNAs are included (knockdown efficiency in hematopoietic cells of 58% and 50%, respectively), each with 2 independent lines; p=0.005, 3 independent experiments. (FIG. 13D) Atg5 deficiency causes anemia in zebrafish. Wild-type zebrafish embryos were treated with 1.6 ng atg5 or missense morpholino, and hemoglobin staining was visualized with benzidine staining at 40 hpf with SMER28 (1 μM). Representative images (left), and quantitation (right) with embryos grouped by high, medium, and low levels of benzidine staining.
SMER28 was identified as an mTOR-independent inducer of autophagy, by synergizing with rapamycin to promote clearance of protein aggregates in models of neurodegenerative disease (Sarkar et al., 2007; Tian et al., 2011). Autophagy is a pro-survival pathway induced by a variety of stresses, such as nutrient limitation or protein aggregation. Autophagy is required for clearance of mitochondria during terminal erythroid maturation (Mortensen and Simon, 2010), but has not been linked with earlier stages of erythropoiesis. To determine if SMER28 modulates autophagy in erythroid cells, we interrogated the levels of p62 and LC3 in K562 erythroleukemia cells transduced with shRPS19. SMER28 reduced p62 and increased the levels of […] LC3-II isoform associated with autophagosomes (FIG. 13A). […] To measure autophagic flux, we monitored LC3-II levels after blocking lysosomal fusion with bafilomycin A. SMER28 increased LC3-II levels following lysosomal blockade, similarly to the mTOR inhibitor rapamycin (FIG. 13B).
Drug treatments. SMER28 was purchased from Tocris and diluted in 10 mM aliquots in DMSO. The final concentration for CD34-5F and CB CD34^+erythroid treatments was 0.2-10 μM as indicated in the text. The final concentration for K562 cell treatments was 20-40 μM. […]

CN1CCN(CCCN2c3ccccc3Sc3ccc(C(F)(F)F)cc32)CC1 [TFP]
percentage of CD71+ cells [1]: restored

C[C@@H]1C[C@H]2[C@@H]3CCC4=CC(=O)C=C[C@]4(C)[C@@]3(F)[C@@H](O)C[C@]2(C)[C@@]1(O)C(=O)CO [Dex, Dexamethasone, reference compound]
RBC output as proportion of human graft (CB CD34+ cells): 10.4%

O=c1[nH]cc(F)c(=O)[nH]1 [5-fluorouracil, reference compound]
conversion of cytosolic LC3-I into LC3-II [2]: induced
